Reference: patent EP0341661A2, “Peptide-drug compositions containing alpha-aminoboronic acid derivatives” (THE DU PONT MERCK PHARMACEUTICAL COMPANY, priority 1988, dated 1989)
Where a name gives a salt, the structure may show the parent alone.

Legend:
Format in all cases: in vivo, Sprague-Dawley rats
[1] = system: aminopeptidases; assay: In situ nasal perfusion: degradation of 100 µM leucine enkephalin in the nasal perfusate; conditions: 0.01 µM Boroleucine (title: 0.1 µM), 60 min
[2] = system: aminopeptidases; assay: In situ nasal perfusion: disappearance of 100 µM Tyr-Phe-Met-Arg-Phe-NH₂ in the nasal perfusate; conditions: 100 µM peptide, 2 µM Boroleucine
Procedure: (§1) The method involved the use of Sprague-Dawley rats weighing approximately 300 grams. Each rat was anesthetized with sodium pentobarbitol (50 mg/kg). An incision was made in the neck and the trachea was canulated with PE 240 tubing. For the in situ studies, a second tube, which served to introduce the perfusing solution, was inserted through the esophagus to the posterior part of the nasal cavity. The nasopalatine was closed with an adhesive to prevent drainage of the perfusing solution from the nasal to the oral cavity. For the in vivo in situ studies, the esophagus was canulated using PE 240 tubing closed at one end. The closed end was pushed to the posterior end of the nasal passage and then tied in place. The nasopalatine was closed with an adhesive to prevent drainage of the perfusing solution from the nasal to the oral cavity. The rats were dosed in one nostril with 50 µl of peptide solution in two forms; the control solution had no inhibitor added, the test solution had inhibitor added at concentrations specified in the examples shown below. The dosing solution was 0.1 M phosphate buffer (pH 7.4). At certain time intervals (one rat/time interval), the drug was washed from the nose via the other nostril with 10 ml of 0.1 M phosphate buffer (pH 3.8) using a peristaltic pump. The nasal washing was then placed in a 10 ml volumetric flask and adjusted to 10 ml with the same buffer and analyzed for the peptide by HPLC.
(§2) The analysis of leucine enkephalin and its major metabolite involved taking aliquots of samples, diluting them with 200 µl of 0.1 M citric acid (pH 2.3) to quench hydrolysis and subjecting the samples to analysis (for in vivo in situ studies, the washings were injected as they were obtained). High Pressure Liquid Chromatography (HPLC) was run on a 4.6 x 250 mm C₈ column. The mobile phase consisted of 0.1 M NaH₂PO₄-H₃PO₄-acetonitrile (916 : 5 : 275) and was delivered at a flow rate of 1.7 ml/min. Detection was by UV at 210 nm. Retention times for leucine enkephalin and its major degradation product, Des-Tyr-leucine enkephalin were 7.3 and 4.8 min., respectively. Data were calculated as % of leucine enkephalin remaining in the nasal perfusate as a function of time, counting the concentration at zero time as 100%.
(§3) A 10 ml portion of the peptide solution was placed in a water-jacketed container, maintained at 37°C and circulated through the nasal cavity of rats using a peristaltic pump. The perfusing solution was passed through the nasal cavity, out the nostrils, through a funnel, and returned to the water-jacketed container. The perfusate was analyzed by the ANALYTICAL METHOD described above.
In this example, a 0.1 M phosphate buffer solution (pH 7.4) containing 100 µM Tyr-Phe-Met-Arg-Phe-NH₂ was administered nasally to rats as described in Example 1. The peptide was administered in the absence of inhibitor and in the presence of 2 µM boroleucine. The perfusate was analyzed by HPLC using the procedure described in Example 1 with the exception that the mobile phase was comprised of 0.1 M NaH₂PO₄:H₃PO₄:CH₃CN (200:1:60) delivered at 1.4 ml/min. Detection was by UV at 210 nm.

[3] = system: aminopeptidases; assay: In situ nasal perfusion: disappearance of 35 µM LH-RH (fragment 3-10) in the nasal perfusate; conditions: 0.465 µM Boroleucine
Procedure: as §1, §2, §3
In this example, a 0.1 M phosphate buffer solution (pH 7.4) containing 35 µM LH-RH (fragment 3-10) in the absence of inhibitor and in the presence of the inhibitor, boroleucine at a concentration of 0.46 µM was administered to rats as described in Example 1. The perfusate was analyzed by HPLC as described in Example 1 with the exception of the mobile phase used. The mobile phase was comprised of 0.1 M NaH₂PO₄:H₃PO₄:CH₃CN(916:5:240) delivered at 1.7 ml/min and analyzed by UV at 210 nm.

[4] = 120 min, listed as Boroleucine, trifluoroacetic acid salt
[5] = 120 min, trifluoroacetic acid salt

## CC(C)CC(N)B1OC(C)(C)C(C)(C)O1 (centres unmarked) [boroleucine, 3-methyl-1(4,4,5,5-tetramethyl-1,3,2-dioxaborolane-2-yl)-1-butamine, trifluoroacetic acid salt]
[1]
  % of leucine enkephalin remaining in the nasal perfusate: 88.8±2.6%
[2]; 0 min
  Tyr-Phe-Met-Arg-Phe-NH₂ remaining intact in the nasal perfusate: 100.0%
[2]; 5 min
  Tyr-Phe-Met-Arg-Phe-NH₂ remaining intact in the nasal perfusate: 93.8%
[2]; 20 min
  Tyr-Phe-Met-Arg-Phe-NH₂ remaining intact in the nasal perfusate: 84.3%
[2]; 30 min
  Tyr-Phe-Met-Arg-Phe-NH₂ remaining intact in the nasal perfusate: 78.8%
[2]; 45 min
  Tyr-Phe-Met-Arg-Phe-NH₂ remaining intact in the nasal perfusate: 70.5%
[2]; 60 min
  Tyr-Phe-Met-Arg-Phe-NH₂ remaining intact in the nasal perfusate: 63.3%
[2]; 90 min
  Tyr-Phe-Met-Arg-Phe-NH₂ remaining intact in the nasal perfusate: 49.5%
[2]; [4]
  Tyr-Phe-Met-Arg-Phe-NH₂ remaining intact in the nasal perfusate: 32.9%
[2]; [5]
  Tyr-Phe-Met-Arg-Phe-NH₂ remaining intact in the nasal perfusate: 33%
[3]; 0 min
  LH-RH (fragment 3-10) remaining in the nasal perfusate: 100.0%
[3]; 5 min
  LH-RH (fragment 3-10) remaining in the nasal perfusate: 96.7%
[3]; 10 min
  LH-RH (fragment 3-10) remaining in the nasal perfusate: 97.5%
[3]; 20 min
  LH-RH (fragment 3-10) remaining in the nasal perfusate: 95.5%
[3]; 30 min
  LH-RH (fragment 3-10) remaining in the nasal perfusate: 96.5%
[3]; 45 min
  LH-RH (fragment 3-10) remaining in the nasal perfusate: 95.8%
[3]; 60 min
  LH-RH (fragment 3-10) remaining in the nasal perfusate: 91.9%
[3]; 90 min
  LH-RH (fragment 3-10) remaining in the nasal perfusate: 92.9%
[3]; [4]
  LH-RH (fragment 3-10) remaining in the nasal perfusate: 86.4%
[3]; [5]
  LH-RH (fragment 3-10) remaining in the nasal perfusate: about 86%
